Source: patent US10653688B2, “6-(6-membered heteroaryl and aryl)isoquinolin-3-yl carboxamides and preparation and use thereof” (Samumed, LLC, priority 2017, dated 2020)
Read-outs that look alike come from different tables or passages of the source.

Tests used:
[1] = biological target: recombinant GSK3β kinase (Homo sapiens (Human), UniProt P49841); assay: GSK3β kinase assay (Ser/Thr 09 peptide Z-lyte, FRET); format: biochemical;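 further: FRET read-out as coumarin over fluorescein emission ratio, compounds incubated one hour at room temperature, IC50 from dose-response curve fit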
recombinant GSK3β kinase, sequence (P49841 whole entry): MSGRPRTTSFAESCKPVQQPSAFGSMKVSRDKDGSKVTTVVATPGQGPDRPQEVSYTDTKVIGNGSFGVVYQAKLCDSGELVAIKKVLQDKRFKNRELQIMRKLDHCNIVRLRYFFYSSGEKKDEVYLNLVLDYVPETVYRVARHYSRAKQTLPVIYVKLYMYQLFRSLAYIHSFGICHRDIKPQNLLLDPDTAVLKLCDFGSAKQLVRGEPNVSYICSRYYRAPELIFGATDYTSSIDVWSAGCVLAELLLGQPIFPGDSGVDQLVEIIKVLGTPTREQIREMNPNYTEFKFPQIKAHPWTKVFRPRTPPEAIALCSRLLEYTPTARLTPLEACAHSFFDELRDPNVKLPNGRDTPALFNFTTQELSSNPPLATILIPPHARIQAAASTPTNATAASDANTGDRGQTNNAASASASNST
Description: Each compound is dissolved in DMSO as a 10 mM stock and used to prepare compound source plates. Serial dilution (1:3, 11-point dose-response curves from 10 M to 0.0003 M) and compound transfer was performed using the ECHO 550 (Labcyte, Sunnyvale, Calif.) into 1536-well black-walled round bottom plates (Corning).
This is a non-radioactive assay using fluorescence resonance energy transfer (FRET) between coumarin and fluorescein to detect kinase activity which is represented as ratio of coumarin emission/fluorescein emission.
The mixture is allowed to incubate with the representative compounds for one hour at room temperature. All reactions were performed in duplicate. Unphosphorylated (“0% Control”) and phosphorylated (“100% control”) forms of Ser/Thr 18 serve as control reactions.
After incubation, diluted Development Buffer is added to the reaction and allowed to further incubate for one hour at room temperature.
Dose-response curves are generated and inhibitory concentration (IC50) values are calculated using non-linear regression curve fit in the Dotmatics' Studies Software (Bishops Stortford, UK).

[2] = tested on: Tau phosphorylation at Ser396 (pSer396) in SH-SY5Y cells; assay: Tau phosphorylation at Ser396 (pSer396) cell assay, ELISA/western blot; format: cell-based, human; conditions: Homo sapiens; SH-SY5Y cells, overnight (16-18 h); read-out: pSer396 Tau EC50
[3] = tested on: Cyclin D1 phosphorylation at Threonine 286 (pCcnD1) over total Cyclin D1 in SH-SY5Y cells; assay: phosphoCcnD1 to total CcnD1 ratio (PTT) cell-based assay, western blot; conditions: Homo sapiens, 48 hours
Description: Representative compounds were screened using the cell-based assay procedure for the ratio of signal of Cyclin D1 phosphorylation at Threonine 286 (pCcnD1) over the signal of total Cyclin D1 (CcnD1) (abbreviated: phosphoCcnD1 to total CcnD1 ratio, or PTT) as described below.
SH-SY5Y cells (human neuroblastoma, Sigma, Saint-Louis, Mo.) were cultured in 1:1 DMEM/F-12 medium supplemented with 15% FBS, 1% non-essential amino acid, and 1% penicillin/streptomycin.
SH-SY5Y cells were seeded at 1.0×10^5 cells in 1 mL per well in a 24-well plate. After cell adherence was confirmed, DMSO-resuspended Samumed compounds were dispensed to eight wells as a serial dilution from 10 μM to 4.6 nM final concentration in medium, or at 1.1 μM to 4.6 nM with particularly potent compounds. Cells were exposed to Samumed compounds for 48 hours in a 37° C. incubator.
Wells of compound-treated cells were visually checked for cell death before being washed with 500 μL per well of 1×DPBS supplemented with phosphatase inhibitor diluted to 1×. Cells were then lysed with 90 μL 1×RIPA buffer supplemented with phosphatase and protease inhibitors (each diluted to a final 1×). After scraping, 60 μL of cell lysate from each sample was used to dilute 4×LDS (ThermoFisher, NP0007) and 20×XT reducing agent (Bio-Rad, 1610792), each diluted to 1× final. All samples were then denatured via boiling at 95° C. Denatured cell sample lysates were directly tested for pCcnD1 and total CcnD1 signal by Western blot techniques and analysis. Specifically, denatured lysates were directly transferred to NuPAGE™ 4-12% Bis-Tris Midi Protein Gels, 26-well gels (ThermoFisher, WG1403BOX). Gels were transferred to […] nitrocellulose membranes via iBlot™ Transfer Stack, nitrocellulose, regular size (ThermoFisher, IB301031). Membranes were blocked with 1×TBS, 5% milk (Bio-Rad, 1706404XTU) before being probed for overnight with either anti-pCcnD1 primary antibody (Cell Signaling Technology, 2978S) or anti-total CcnD1 primary antibody (Cell Signaling Technology, 3300S) diluted 1:500 in 1×TBS-0.05% Tween-20, 3% milk. After overnight incubation in primary antibodies, membranes were washed profusely with 1×TBS-0.05% Tween-20 and probed for 1 hour with secondary anti-rabbit/HRP conjugate (Cell Signaling Technology, 7074S) diluted 1:1000 in 1×TBS-0.05% Tween-20, 3% milk. After incubation in secondary antibody, membranes were washed with 1×TBS-0.05% Tween-20.
Probed and washed membranes were developed for pCcnD1 or total CcnD1 signal with SuperSignal™ West Femto Maximum Sensitivity Substrate (ThermoFisher, 34096) using the ChemoDoc-It^2 (UVP) and related GelDocIt imaging software. Blots were then stripped, blocked, stained with anti-β-actin/HRP conjugate antibody (Cell Signaling Technology, 5125S), developed, and imaged for housekeeping β-actin protein control as previously described. Densitometry was measured with ImageJ (NIH) and signal was used to plot, draw the curves fitting, and determine the EC50 values in GraphPad Prism for tested Samumed compounds.

[4] = tested on: SW480 colon carcinoma cells; assay: Cell viability assay (CellTiter-Glo); format: cell-based, human; conditions: Homo sapiens; for EC50: 96 h, four days, CellTiter-Glo; for inhibition at 10 µM: read-out: percent inhibition at 10 μM (given for EC50 >10 μM), 10 μM
[5] = GSK3β kinase, head says EC50, method says IC50, ATP 46 μM

| Compound | EC50 [1, 5] | EC50 [2] | EC50 [3] | EC50 [4] | inhibition at 10 µM [4] | EC50 [1] |
| --- | --- | --- | --- | --- | --- | --- |
| O=C(Nc1cc2cc(-c3cccnc3)ccc2cn1)C1CC1 [Compound 6, N-(6-(Pyridin-3-yl)isoquinolin-3-yl)cyclopropanecarboxamide] | 56 nM | 798 nM | 276 nM | 1600 nM | – | – |
| CN1CCC(C(=O)Nc2cc3cc(-c4cccnc4)ccc3cn2)CC1 [Compound 8, 1-Methyl-N-(6-(pyridin-3-yl)isoquinolin-3-yl)piperidine-4-carboxamide] | 652 nM | 795 nM | 36 nM | 3140 nM | – | – |
| Cc1nccn1CC(=O)Nc1cc2cc(-c3cccnc3)ccc2cn1 [Compound 14, 2-(2-Methyl-1H-imidazol-1-yl)-N-(6-(pyridin-3-yl)isoquinolin-3-yl) acetamide] | 111 nM | 1600 nM | 205 nM | > 10000 nM | 47.6% | – |
| O=C(Cn1ccnc1)Nc1cc2cc(-c3cccnc3)ccc2cn1 [Compound 15, 2-(1H-Imidazol-1-yl)-N-(6-(pyridin-3-yl)isoquinolin-3-yl)acetamide] | 97 nM | 1100 nM | 127 nM | 6440 nM | – | – |
| O=C(CN1CCCC1)Nc1cc2cc(-c3cncc(F)c3)ccc2cn1 [Compound 18, N-(6-(5-Fluoropyridin-3-yl)isoquinolin-3-yl)-2-(pyrrolidin-1-yl)acetamide] | 1180 nM | – | 123 nM | > 10000 nM | 22.2% | – |
| CN1CCC(C(=O)Nc2cc3cc(-c4cncc(F)c4)ccc3cn2)CC1 [Compound 19, N-(6-(5-Fluoropyridin-3-yl)isoquinolin-3-yl)-1-methylpiperidine-4-carboxamide] | – | 9400 nM | 140 nM | > 10000 nM | 42.8% | 1800 nM |
| CN1CCN(CC(=O)Nc2cc3cc(-c4cncc(F)c4)ccc3cn2)CC1 [Compound 20, N-(6-(5-Fluoropyridin-3-yl)isoquinolin-3-yl)-2-(4-methylpiperazin-1-yl) acetamide] | – | – | 355 nM | > 10000 nM | 37.2% | 3280 nM |
| O=C(CCN1CCOCC1)Nc1cc2cc(-c3cncc(F)c3)ccc2cn1 [Compound 23, N-(6-(5-Fluoropyridin-3-yl)isoquinolin-3-yl)-3-morpholinopropanamide] | – | 8500 nM | 80 nM | > 10000 nM | 24.8% | 602 nM |
| CN1CCC(C(=O)Nc2cc3cc(-c4cncc(C#N)c4)ccc3cn2)CC1 [Compound 32, N-(6-(5-Cyanopyridin-3-yl)isoquinolin-3-yl)-1-methylpiperidine-4-carboxamide] | 6660 nM | – | 1 nM | > 10000 nM | 8.8% | – |
| COc1cncc(-c2ccc3cnc(NC(=O)C4CCN(C)CC4)cc3c2)c1 [Compound 33, N-(6-(5-Methoxypyridin-3-yl)isoquinolin-3-yl)-1-methylpiperidine-4-carboxamide] | 957 nM | 1450 nM | 9100 nM | 1820 nM | – | – |
| O=C(Nc1cc2cc(-c3cncc(NC4CCNCC4)n3)ccc2cn1)C1CCCCC1 [Compound 44, N-(6-(6-(piperidin-4-ylamino)pyrazin-2-yl)isoquinolin-3-yl) cyclohexanecarboxamide] | 193 nM | – | 4 nM | 813 nM | – | – |
| O=C(Nc1cc2cc(-c3cncc(CN4CCCC4)c3)ccc2cn1)C1CC1 [Compound 51, N-(6-(5-(Pyrrolidin-1-ylmethyl)pyridin-3-yl)isoquinolin-3-yl) cyclopropanecarboxamide] | 175 nM | 1900 nM | 974 nM | 4060 nM | – | – |
| O=C(Nc1cc2cc(-c3cncc(CN4CCC(O)CC4)c3)ccc2cn1)C1CC1 [Compound 53, N-(6-(5-((4-Hydroxypiperidin-1-yl)methyl)pyridin-3-yl)isoquinolin-3-yl) cyclopropanecarboxamide] | – | 705 nM | 30 nM | 2350 nM | – | 175 nM |
| CN1CCN(Cc2cncc(-c3ccc4cnc(NC(=O)C5CC5)cc4c3)c2)CC1 [Compound 56, N-(6-(5-((4-Methylpiperazin-1-yl)methyl)pyridin-3-yl)isoquinolin-3-yl) cyclopropanecarboxamide] | 609 nM | 4900 nM | 45 nM | 3300 nM | – | – |
| O=C(Nc1cc2cc(-c3cncc(CN4CCOCC4)c3)ccc2cn1)C1CC1 [Compound 57, N-(6-(5-(Morpholinomethyl)pyridin-3-yl)isoquinolin-3-yl) cyclopropanecarboxamide] | 180 nM | 2000 nM | 193 nM | 3180 nM | – | – |
| [2H]c1nc([2H])c(-c2ccc3cnc(NC(=O)CN4CCCC4)cc3c2)c([2H])c1[2H] [Compound 60, N-(6-(pyridin-3-yl-d4)isoquinolin-3-yl)-2-(pyrrolidin-1-yl)acetamide] | – | 1900 nM | 250 nM | 3940 nM | – | 404 nM |
| CC(C)CN1CCCC(C(=O)Nc2cc3cc(-c4cnccn4)ccc3cn2)CC1 (centres unmarked) [Compound 81, 1-Isobutyl-N-(6-(pyrazin-2-yl)isoquinolin-3-yl)azepane-4-carboxamide] | 1300 nM | – | 3000 nM | > 10000 nM | 21.3% | – |
| O=C(Nc1cc2cc(-c3cncc(NC4CCNCC4)n3)ccc2cn1)C1CCOCC1 [Compound 109, N-(6-(6-(Piperidin-4-ylamino)pyrazin-2-yl)isoquinolin-3-yl)tetrahydro-2H-pyran-4-carboxamide] | 264 nM | – | 412 nM | 1220 nM | – | – |
| CN1CCN(c2cc(C(=O)Nc3cc4cc(-c5cnc6ocnc6c5)ccc4cn3)ccn2)CC1 [Compound 132, 2-(4-Methylpiperazin-1-yl)-N-(6-(oxazolo[5,4-b]pyridin-6-yl)isoquinolin-3-yl)isonicotinamide] | > 10000 nM | – | > 10000 nM | 1510 nM | – | – |
| Cc1cc2ncc(-c3ccc4cnc(NC(=O)c5ccnc(N6CCN(C)CC6)c5)cc4c3)cc2[nH]1 [Compound 135, N-(6-(2-Methyl-1H-pyrrolo[3,2-b]pyridin-6-yl)isoquinolin-3-yl)-2-(4-methylpiperazin-1-yl)isonicotinamide] | > 10000 nM | – | 37 nM | 2370 nM | – | – |
| O=C(CN1CCOCC1)Nc1cc2cc(-c3cccnc3)c(F)cc2cn1 [Compound 144, N-(7-Fluoro-6-(pyridin-3-yl)isoquinolin-3-yl)-2-morpholinoacetamide] | 1250 nM | – | 298 nM | > 10000 nM | 22% | – |
| CN1CCN(CC(=O)Nc2cc3cc(-c4cccnc4)c(F)cc3cn2)CC1 [Compound 145, N-(7-Fluoro-6-(pyridin-3-yl)isoquinolin-3-yl)-2-(4-methylpiperazin-1-yl) acetamide] | 2890 nM | – | 48 nM | > 10000 nM | 18.8% | – |
| COc1cncc(-c2ccc3cnc(NC(=O)CN4CCOCC4)cc3c2)c1 [Compound 147, N-(6-(5-Methoxypyridin-3-yl)isoquinolin-3-yl)-2-morpholinoacetamide] | 1020 nM | – | 359 nM | > 10000 nM | 5.3% | – |
| [2H]C1([2H])OC([2H])([2H])C([2H])([2H])N(CC(=O)Nc2cc3cc(-c4cccnc4)ccc3cn2)C1([2H])[2H] [Compound 151, 2-(Morpholino-d8)-N-(6-(pyridin-3-yl)isoquinolin-3-yl)acetamide] | – | – | 16 nM | > 10000 nM | 24.6% | 795 nM |
